Key:
cyclooxygenase-1 = molecular target: T1, cyclooxygenase-1 (Homo sapiens, UniProt P23219); test: Cyclooxygenase-1 inhibition in U-937 cells (PGE2 quantitation after arachidonic acid); type: cell-based; conditions: for Inhibitory effects of cyclooxygenase (COX): COX-1 (U-937): U-937 cells; for inhibition effect against cyclooxygenase-1 compared with standard substance SC-58635: in words, compared with SC-58635
T1 construct: endogenous in cells; host or cells: U-937 (Korean cell line bank)
Experimental: (§1) In order to investigate pharmacologically the selective inhibition activity against cyclooxygenase-2 enzyme, the inhibitive effects against cyclooxygenase-1 and cyclooxygenase-2 were measured by two methods as follows.
Then, the pellet was diluted with 1×HBSS (Hank's balanced salt solutin) at the concentration of 1×10^6 cells/ml, and 1 ml of them was transferred into each of 12-well plates, and then dissolved with DMSO. 5 μl of the diluted sample solution and 5 μl of DMSO vehicle were added therein and mixed, and the mixture was cultured at 37° C. in CO2 incubator for 15 minutes. Arachidonic acid as a substrate was dissolved in ethanol to prepare a stock solution with a concentration of 10 mM, followed by diluting with 1×HBSS to prepare the solution of 1 mM. 10 μl of 1 mM Arachidonic acid solution was added to each of the treated wells and the mixture was cultured at 37° C. in CO2 incubator for 30 minutes. The cell solution of each well was collected in the centrifuge tube and centrifuged at 4° C., for 5 minutes at 10,000 rpm. As PGE2 existed in the supernatant separated from collected cell, the concentration of PGE2 was quantitated by using monoclonal kit from Cayman Chemicals, and the concentration of samples and vehicle were compared to estimate the inhibition ratio (%) of each compound against cyclooxygenase-1. Ultimately, the inhibition effect against the cyclooxygenase-1 enzyme was obtained from the result.

cyclooxygenase-2 = molecular target: T2, cyclooxygenase-2 (Mus musculus, UniProt Q05769); test: Cyclooxygenase-2 inhibition in Raw 264.7 cells (interferon γ/LPS induced, PGE2 EIA); type: cell-based; conditions: for Inhibitory effects of cyclooxygenase (COX): COX-2 (Raw 264.7): Raw 264.7 cells; for selectivity of cyclooxygenase-2 compared with standard substance: COX-2 versus COX-1, compared with SC-58635
T2 construct: endogenous in cells; host or cells: Raw 264.7 (Korean cell line bank), induced with interferon γ and LPS
T2 sequence (Q05769 18-604): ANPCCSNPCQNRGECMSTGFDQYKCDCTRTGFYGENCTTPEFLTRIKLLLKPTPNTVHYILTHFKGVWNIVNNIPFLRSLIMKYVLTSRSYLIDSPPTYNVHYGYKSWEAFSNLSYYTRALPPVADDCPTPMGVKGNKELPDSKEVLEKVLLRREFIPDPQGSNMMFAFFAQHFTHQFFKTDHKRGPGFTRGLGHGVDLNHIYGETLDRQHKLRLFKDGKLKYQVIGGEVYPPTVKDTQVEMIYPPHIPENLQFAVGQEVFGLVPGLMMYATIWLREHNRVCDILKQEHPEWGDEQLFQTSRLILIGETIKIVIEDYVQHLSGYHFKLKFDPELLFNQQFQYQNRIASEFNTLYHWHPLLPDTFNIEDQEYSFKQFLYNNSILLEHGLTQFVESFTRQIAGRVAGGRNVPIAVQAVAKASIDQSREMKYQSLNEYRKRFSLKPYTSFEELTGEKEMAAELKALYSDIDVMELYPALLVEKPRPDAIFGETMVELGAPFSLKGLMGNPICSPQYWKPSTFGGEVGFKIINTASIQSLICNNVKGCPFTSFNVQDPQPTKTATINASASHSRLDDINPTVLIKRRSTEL
Experimental: as §1
And then, each samples were replaced with new media and cultured for 30 minutes. In addition, the samples were treated with 100 units/ml of interferon γ and 100 ng/ml of lipopolysaccharide (LPS), and cultured for 18 hours. Then, the media was transferred to other tubes and the PGE 2 was quantitated by using EIA kit from Cayman Chemicals.

T1 sequence (P23219 24-599): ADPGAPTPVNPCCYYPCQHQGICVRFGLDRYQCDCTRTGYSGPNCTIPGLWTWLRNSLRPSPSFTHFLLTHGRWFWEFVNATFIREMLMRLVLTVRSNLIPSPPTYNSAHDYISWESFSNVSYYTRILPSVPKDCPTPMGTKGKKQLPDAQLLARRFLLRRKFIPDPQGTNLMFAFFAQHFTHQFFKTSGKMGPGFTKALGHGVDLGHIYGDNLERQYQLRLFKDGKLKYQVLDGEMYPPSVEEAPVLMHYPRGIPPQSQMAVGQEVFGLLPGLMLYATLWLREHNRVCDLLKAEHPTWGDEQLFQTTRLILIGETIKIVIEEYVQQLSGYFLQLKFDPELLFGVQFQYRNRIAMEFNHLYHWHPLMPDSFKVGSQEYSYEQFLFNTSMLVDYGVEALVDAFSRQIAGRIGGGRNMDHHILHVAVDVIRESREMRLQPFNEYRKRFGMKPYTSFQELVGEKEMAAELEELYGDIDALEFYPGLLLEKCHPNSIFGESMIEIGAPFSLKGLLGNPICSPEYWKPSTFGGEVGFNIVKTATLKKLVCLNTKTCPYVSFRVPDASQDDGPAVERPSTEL

Row | Structure (SMILES) | Inhibitory effects of cyclooxygenase (COX): COX-1 (U-937) (cyclooxygenase-1; 1 μM) | Inhibitory effects of cyclooxygenase (COX): COX-1 (U-937) (cyclooxygenase-1; 3 μM) | Inhibitory effects of cyclooxygenase (COX): COX-1 (U-937) (cyclooxygenase-1; 10 μM) | Inhibitory effects of cyclooxygenase (COX): COX-2 (Raw 264.7) (cyclooxygenase-2; 30 nM) | Inhibitory effects of cyclooxygenase (COX): COX-2 (Raw 264.7) (cyclooxygenase-2; 100 nM) | Inhibitory effects of cyclooxygenase (COX): COX-2 (Raw 264.7) (cyclooxygenase-2; 300 nM) | selectivity of cyclooxygenase-2 compared with standard substance (cyclooxygenase-2; in words) | inhibition effect against cyclooxygenase-1 compared with standard substance SC-58635 (cyclooxygenase-1) | inhibition effect against cyclooxygenase-2 compared with standard substance SC-58635 (cyclooxygenase-2; in words, low concentration, same condition as SC-58635)
1 | CS(=O)(=O)c1ccc(-c2ncccc2OC2CCCC2)cn1 [Example 2, 3-cyclopentyloxy-6′-methylsulfonyl-2,3′-bipyridinyl] | 12.7 % inhibition | 14.3 % inhibition | 21.0 % inhibition | 40.3 % inhibition | 53.2 % inhibition | 63.5 % inhibition | better than any other standard substances | much lower level than standard substance | more excellent in low concentration than standard substance
2 | CS(=O)(=O)c1ccc(-c2ncccc2OC2CCCCC2)cn1 [Example 3, 3-cyclohexyloxy-6′-methylsulfonyl-2,3′-bipyridinyl] | 11.2 % inhibition | 12.5 % inhibition | 14.0 % inhibition | 23.5 % inhibition | 30.2 % inhibition | 42.2 % inhibition | – | – | –
3 | CC(C)=CCOc1cccnc1-c1ccc(S(C)(=O)=O)nc1 [Example 4, 6′-methylsulfonyl-3-(3-methyl-2-butenyloxy)-2,3′-bipyridinyl] | 12.2 % inhibition | 15.6 % inhibition | 17.0 % inhibition | 15.8 % inhibition | 28.5 % inhibition | 40.8 % inhibition | – | – | –

Continued, in another order:

Row | Inhibitory effects of cyclooxygenase (COX): COX-1 (U-937) (cyclooxygenase-1; 1 μM) | Inhibitory effects of cyclooxygenase (COX): COX-1 (U-937) (cyclooxygenase-1; 3 μM) | Inhibitory effects of cyclooxygenase (COX): COX-1 (U-937) (cyclooxygenase-1; 10 μM) | Inhibitory effects of cyclooxygenase (COX): COX-2 (Raw 264.7) (cyclooxygenase-2; 30 nM) | Inhibitory effects of cyclooxygenase (COX): COX-2 (Raw 264.7) (cyclooxygenase-2; 100 nM) | Inhibitory effects of cyclooxygenase (COX): COX-2 (Raw 264.7) (cyclooxygenase-2; 300 nM) | selectivity of cyclooxygenase-2 compared with standard substance (cyclooxygenase-2; in words) | Structure (SMILES) | inhibition effect against cyclooxygenase-1 compared with standard substance SC-58635 (cyclooxygenase-1) | inhibition effect against cyclooxygenase-2 compared with standard substance SC-58635 (cyclooxygenase-2; in words, low concentration, same condition as SC-58635)
4 | 0.2 % inhibition | 7.5 % inhibition | 11.0 % inhibition | 10.2 % inhibition | 14.2 % inhibition | 15.2 % inhibition | hardly different | CC(C)Oc1cccnc1-c1ccc(S(C)(=O)=O)nc1 [Example 1, 3-isopropyloxy-6′-methylsulfonyl-2,3′-bipyridinyl] | much lower level than a comparative substance | –
5 | 13.5 % inhibition | 16.2 % inhibition | 18.9 % inhibition | 10.3 % inhibition | 11.01 % inhibition | 20.1 % inhibition | hardly different | C[C@H](CO)COc1cccnc1-c1ccc(S(C)(=O)=O)nc1 [Example 5, (R)-3-(6′-methylsulfonyl-2,3′-bipyridine-3-yloxy)-2-methyl-1-propanol] | much lower level than a comparative substance | –
6 | 14.3 % inhibition | 17.2 % inhibition | 24.5 % inhibition | 9.3 % inhibition | 12.0 % inhibition | 21.0 % inhibition | hardly different | C[C@@H](CO)COc1cccnc1-c1ccc(S(C)(=O)=O)nc1 [Example 6, (S)-3-(6′-methylsulfonyl-2,3′-bipyridine-3-yloxy)-2-methyl-1-propanol] | much lower level than a comparative substance | –

Reference: US6946558B2 (CJ Corp., priority 2001, dated 2005)
